The target in one series is T1, UGT2B7 (Homo sapiens, UniProt P16662).
T1 sequence (P16662 24-529): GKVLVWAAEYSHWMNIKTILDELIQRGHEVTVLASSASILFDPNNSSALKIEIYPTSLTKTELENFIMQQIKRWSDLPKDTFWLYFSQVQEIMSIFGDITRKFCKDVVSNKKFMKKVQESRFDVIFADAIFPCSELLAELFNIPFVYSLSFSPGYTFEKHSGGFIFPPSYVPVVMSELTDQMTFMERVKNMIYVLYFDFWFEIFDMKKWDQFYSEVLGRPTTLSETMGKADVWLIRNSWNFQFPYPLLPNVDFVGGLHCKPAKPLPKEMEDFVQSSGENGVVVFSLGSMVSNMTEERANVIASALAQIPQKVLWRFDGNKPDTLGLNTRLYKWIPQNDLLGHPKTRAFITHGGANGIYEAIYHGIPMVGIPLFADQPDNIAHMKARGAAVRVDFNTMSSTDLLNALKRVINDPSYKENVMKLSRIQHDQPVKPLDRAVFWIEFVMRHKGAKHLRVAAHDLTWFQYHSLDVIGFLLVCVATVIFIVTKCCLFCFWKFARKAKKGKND
As to conditions: ref Veal et al., 1995; Barbier et al., 2000; cited from earlier work.

A further series deals with T2, UGT1A8 (Homo sapiens, UniProt Q9HAW9).
T2 sequence (Q9HAW9 26-530): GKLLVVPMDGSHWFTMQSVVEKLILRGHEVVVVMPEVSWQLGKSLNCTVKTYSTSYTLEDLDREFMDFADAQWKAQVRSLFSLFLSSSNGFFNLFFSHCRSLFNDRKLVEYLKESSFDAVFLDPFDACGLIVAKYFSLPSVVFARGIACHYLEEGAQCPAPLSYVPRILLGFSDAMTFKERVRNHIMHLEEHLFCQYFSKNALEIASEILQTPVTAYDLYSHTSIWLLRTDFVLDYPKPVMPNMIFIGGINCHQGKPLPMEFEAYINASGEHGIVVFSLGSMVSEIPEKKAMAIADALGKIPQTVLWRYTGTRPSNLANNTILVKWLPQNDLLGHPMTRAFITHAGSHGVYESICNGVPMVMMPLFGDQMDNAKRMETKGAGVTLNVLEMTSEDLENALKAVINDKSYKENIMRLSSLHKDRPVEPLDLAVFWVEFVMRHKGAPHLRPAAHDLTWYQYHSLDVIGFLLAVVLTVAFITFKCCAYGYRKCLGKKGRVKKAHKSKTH
As to the kind of experiment: in vitro. As to conditions: UGT1A8 Supersomes, pH 7.5, probe aprepitant […] (Km), AP-G formation.

In series [1] the test system is human intestinal microsomes (HIM).
Series [2] deals with human liver microsomes (HLM). As to the kind of experiment: Inhibition of aprepitant glucuronidation by UGT specific inhibitors in HLM. As to conditions: for inhibition of aprepitant glucuronidation: aprepitant at 5 µM and at the Kms. In kind it is in vitro ADME.
Series [3] addresses T3, UGT1A3 (Homo sapiens, UniProt P35503).
T3 sequence (P35503 29-534): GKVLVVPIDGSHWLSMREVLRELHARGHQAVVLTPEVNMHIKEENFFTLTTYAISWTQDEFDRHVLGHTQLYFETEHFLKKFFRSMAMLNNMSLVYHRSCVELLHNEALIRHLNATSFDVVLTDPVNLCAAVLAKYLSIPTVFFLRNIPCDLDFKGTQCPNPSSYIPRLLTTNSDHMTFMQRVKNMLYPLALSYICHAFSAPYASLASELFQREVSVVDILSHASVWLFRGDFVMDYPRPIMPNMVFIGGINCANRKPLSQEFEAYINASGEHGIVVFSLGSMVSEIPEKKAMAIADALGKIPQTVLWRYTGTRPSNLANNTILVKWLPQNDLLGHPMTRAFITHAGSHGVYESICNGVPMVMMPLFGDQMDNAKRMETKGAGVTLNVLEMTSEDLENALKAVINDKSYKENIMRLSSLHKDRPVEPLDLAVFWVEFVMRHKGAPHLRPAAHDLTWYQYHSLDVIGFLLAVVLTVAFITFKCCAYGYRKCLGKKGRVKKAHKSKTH
As to the kind of experiment: Inhibition of aprepitant glucuronidation by UGT specific inhibitors in UGT1A3. Conditions: UGT1A3 Supersomes, pH 7.5, probe aprepitant 5 µM, AP-G formation.

Series [4] addresses T3, UGT1A3. As to the kind of experiment: in vitro. As to conditions: UGT1A3 Supersomes, pH 7.5, probe aprepitant […] µM (Km), AP-G formation.
Series [5] addresses T4, UGT1A4 (Homo sapiens, UniProt P22310).
T4 sequence (P22310 29-534): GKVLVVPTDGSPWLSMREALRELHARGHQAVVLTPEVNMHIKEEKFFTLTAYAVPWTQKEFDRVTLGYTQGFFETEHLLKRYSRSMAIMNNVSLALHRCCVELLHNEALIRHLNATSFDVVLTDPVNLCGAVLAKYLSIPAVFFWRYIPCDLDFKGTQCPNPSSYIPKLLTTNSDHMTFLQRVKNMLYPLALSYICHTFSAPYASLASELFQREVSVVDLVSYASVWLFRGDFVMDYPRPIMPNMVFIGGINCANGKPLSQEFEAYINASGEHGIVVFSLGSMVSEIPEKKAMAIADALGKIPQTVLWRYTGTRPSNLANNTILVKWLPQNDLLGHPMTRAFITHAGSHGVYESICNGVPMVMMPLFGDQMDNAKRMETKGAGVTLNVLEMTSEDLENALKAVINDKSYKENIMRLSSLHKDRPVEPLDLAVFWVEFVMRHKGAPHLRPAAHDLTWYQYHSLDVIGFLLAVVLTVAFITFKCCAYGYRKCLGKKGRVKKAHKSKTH
As to the kind of experiment: Inhibition of aprepitant glucuronidation by UGT specific inhibitors in UGT1A4. As to conditions: UGT1A4, aprepitant 5 µM, 200 µM hecogenin.

For series [6], the target named is T4, UGT1A4.
Substrate in the series “not read”: C[C@@H](O[C@H]1OCCN(Cc2n[nH]c(=O)[nH]2)[C@H]1c1ccc(F)cc1)c1cc(C(F)(F)F)cc(C(F)(F)F)c1
As to the kind of experiment: not read. As to conditions: mean ± SE, pH 7.5, 37.0 °C.

Setting [7] is: aprepitant 5 µM, 1000 µM sulfinpyrazone or 200 µM hecogenin.

We go through seven molecules from article PMC4844176 (Xenobiotica; the fate of foreign compounds in biological …, 2015).

Values joined by “and” are separate entries in the source; they are usually repeats but may differ in a detail not shown here. Equal entries are not always repeated.

In the case of `Cc1cn([C@H]2C[C@H](N=[N+]=[N-])[C@@H](CO)O2)c(=O)[nH]c1=O` [AZT, 3’-azido-3’-deoxythymidine], the “share of glucuronidation catalyzed by UGT2B7” value at UGT2B7 is 60–70%.
Usually inhibition stands for the percentage by which the read-out fell short of the control. Take `O=C(O)Cc1ccccc1Nc1c(Cl)cccc1Cl` [diclofenac]: the inhibition at 60 min, 500 µM at UGT1A8 was found to be 66.7%. In addition, the inhibition in series [1] turned out to be 100%.
For `O=C1C(CC[S+]([O-])c2ccccc2)C(=O)N(c2ccccc2)N1c1ccccc1` (stereo not shown) [sulfinpyrazone], the “Percent inhibition of aprepitant glucuronidation” value turned out to be 22.2% in [2] (setting [7]) and 22.1% in [2] (aprepitant […] µM (Km for UGT1A3), 1000 µM sulfinpyrazone). Moreover, the “inhibition of aprepitant glucuronidation” value in series [2] is on record as less than 25%. Moreover, the inhibition at 60 min, 1000 µM against UGT1A3 [3] and on UGT1A3 [4] was 100% in each case.
In the case of hecogenin, the “Percent inhibition of aprepitant glucuronidation” value is on record as 100% in series [2] (setting [7]); 80.8% in series [2] (aprepitant […] (Km for UGT1A4), 200 µM hecogenin); 100% on UGT1A4 [5]. In addition, the “inhibition of aprepitant glucuronidation” value in series [2] is recorded as “high inhibition”. In addition, the inhibition on UGT1A4 [6] stood at 83.9%.

B1: UGT1A3 (Homo sapiens) (protein)
chain: T3 sequence (P35503 29-534)
With B1, in the series “not read” (other: UGT1A3, Michaelis-Menten), the K0.5 was 69.4 ± 1.9 µM and 69 ± 2 µM.

B2: UGT1A8 (Homo sapiens) (protein)
chain: T2 sequence (Q9HAW9 26-530)
With B2, the K0.5 in the series “not read” (other: UGT1A8, Hill equation (S50)) was 197.1 ± 28.2 µM and 197 ± 28 µM.

B3: UGT1A4 (Homo sapiens) (protein)
chain: T4 sequence (P22310 29-534)
For the molecule B3, in the series “not read” (other: UGT1A4, Michaelis-Menten), the K0.5 is 161.6 ± 15.6 µM and 162 ± 16 µM.
